Test results published in patent US8557300B2 (priority 2005, dated 2013).
Like-named read-outs stand apart in the source and are kept apart here.

What was measured:
[1] = system: mucoid CF clinical isolates of PA; assay type: cell-based, Pseudomonas aeruginosa; conditions: isolates marked by black arrows in FIG. 6
Experimental: (§1) The CFU in the inoculum versus that after a 4 day anaerobic incubation are determined.

[2] = system: sodAsodB mutant of strain PAO1; conditions: aerobic conditions, LB pH 6.5, 15 mM NO2^−
Experimental: CFU are measured daily and plotted in logarithmic scale. For aerobic samples, strains are grown with vigorous shaking (300 rpm).

[3] = system: mucoid FRD1 and nonmucoid FRD1/pmucA in mouse lungs
Experimental: CD1 mice are infected with FRD1 or FRD1/pmucA.
CD1 mice are infected with ˜10^6 FRD1 or FRD1/pmucA entrapped in agar beads intratracheally. […] On the fifth day, the mice are sacrificed and the viable bacteria from the lung homogenates are enumerated.
The efficacy of HNO2 to kill strain FRD1 in a PA chronic lung infection model is then determined.

[4] = system: FRD1 and FRD1/pmucA in CD1 mouse airways
[5] = system: mucoid strain FRD1; conditions: FRD1, CF ultrasupernatants pH 6.24, 15 mM NO2^−
Experimental: CFU are determined (n=3) and plotted as the X±SEM vs. time.
Purulent secretions are harvested from the airways of CF lungs which physicians remove at the time of lung transplantation.

[6] = system: FRD1 in mouse lungs; conditions: FRD1-infected mice, daily 15 mM NO2^− pH 6.5 for 16 days
[7] = system: mucoid CF clinical isolates of PA
Experimental: as §1
(§2) The PA strains used in this study include laboratory strains PAO1 (5), CF isolate FRD1 (6), other sputum isolates from CF patients, and sixteen mucoid isolates. Complementation of the mucA mutant allele of strain FRD1 is achieved by transformation with ptacmucA. Aerobic starter cultures are grown in L-broth (10 g tryptone, 5 g NaCl and 5 g yeast extract, per liter) at 37° C. […] To support anaerobic respiration, KNO3 and/or NaNO2 are added to the medium. The pH of the medium is adjusted with 100 mM sodium phosphate (for pH 6.5) or 100 mM sodium acetate (for pH 5.5). To enumerate viable cells in cultures, colony forming units (CFU) are determined.

[8] = system: FRD1 and FRD1/pmucA
Experimental: The FRD1 and FRD1/pmucA are seeded on LB agar and buffered at the indicated pH.
Plates are incubated for 2 days under anaerobic conditions.

[9] = system: PA strains isolated from 5 different young CF patients; conditions: 15 mM NO2^−
Experimental: as §2

[10] = system: mucoid FRD1
Experimental: as §2

[11] = system: PA mucA, mucB, mucD, algW, algD, algT(U) mutant strains and clinical isolates
Experimental: Other than mucA, the aforementioned genes are the only reported loci that, when inactivated, allow for mucoid conversion in PA (25-27).
as §2

[12] = system: mucoid FRD1 and nonmucoid FRD1/pmucA; conditions: 15 mM NO2^−, pH 6.5, anaerobic, 5 days
Experimental: The black bars indicate non-mucoid FRD1/pmucA and the gray bars indicate mucoid FRD1.
as §2

[13] = system: nonmucoid PAO1, mucoid FRD1, nonmucoid FRD1/pmucA; conditions: pH 6.5, anaerobic
Experimental: The colony forming units (CFU) are enumerated each day and plotted.
Based upon the slightly acidic pH measurements of segmental and subsegmental bronchi from CF transplant patients, discussed above, well-characterized P. aeruginosa strains are grown at pH 6.5 under strict anaerobic conditions.
as §2

[14] = system: Staphylococcus aureus; conditions: slightly acidified
Excerpt: The current last resort for treatment against these antibiotic resistant strains is with vancomycin.

[15] = apical, cultured CF airway epithelia; preliminary studies
Experimental: (§3) For experiments measuring transepithelial water flux, the primary cultures of airway epithelia are cultured in a specially humidified incubator, to prevent evaporative water loss from the culture surface. […] BD concentration is measured optically and IL-8 concentrations in basolateral media are measured using commercially available antibody pairs (R&D Systems, Minneapolis, Minn.) according to the manufacturer's instructions. […] At various time points, aliquots of apical liquid are aspirated and stored at −20° C.

[16] = system: primary cultures of CF airway epithelia; conditions: 15 mM NO2^−, 24 hr
Experimental: as §3

[17] = system: CF airway epithelial cultures; conditions: 15 mM NO2^−, 24 hr
Experimental: as §3

[18] = system: nor CB mutant of FRD1; conditions: pH 6.5
[19] = system: PA sputum isolates CF-1 to CF-5; conditions: CF-1 to CF-4, 15 mM NO2^−, pH 6.5, anaerobic, 1 day
Excerpt: The effect of HNO2 on the killing of sputum isolates from CF patients is also monitored.

[20] = system: human CF airway epithelium; conditions: up to 20 times the dose required to kill mucoid mucA mutant PA, 2 μl apical, pH 6.5, 24 hr
[21] = system: anaerobic biofilms of FRD1 and FRD1/pmucA
Experimental: For the confocal laser microscopic analysis of anaerobic FRD1 biofilms, live cells are stained with syto-9, and dead cells are stained with propidium iodide.
An 8-chambered coverslip system (Lab-Tek Inc., Campbell, Calif.) is used for biofilm architecture and viability experiments. […] Bacterial viability staining and image acquisition are accomplished as described previously by Sparkman et al.
Anaerobic biofilms of strains FRD1 and FRD1/pmucA are grown for 1 day in media containing NO3^−, which supports anaerobic respiration.

[22] = system: CF airway epithelial cultures
Experimental: Transepithelial short circuit current (Isc in μA/Cm^2) is measured to monitor any change in bioelectric properties.
A primary culture of human airway epithelial cells is performed. […] LDH is measured using a commercially available spectrophotometric assay kit (Biovision Research Products, Mountain View, Calif.) according to the manufacturer's instructions. Then, the bioelectric properties of cultured airway epithelial cells are analyzed.

[23] = system: mucoid FRD1 and nonmucoid FRD1/pmucA; conditions: pH 6.5/15 mM NO2^− versus pH 5.5/[…] NO2^−
[24] = system: mucoid FRD1; assay: Protection of mucoid FRD1 from acidified NO2^− by NO scavengers (FIG. 9); assay type: cell-based, Pseudomonas aeruginosa; conditions: millimolar concentrations (5 mM); LB pH 6.5, 15 mM NO2^−
Excerpt: Line 3 is the FRD1 control bacteria alone.

[25] = system: FRD1 and FRD1/pmucA; assay: NO gas exposure of bacterial suspension (FIG. 10); assay type: cell-based, Pseudomonas aeruginosa; conditions: 380 nM solution concentration of NO, LB pH 6.5, 24 hr anaerobic
Experimental: A NO gas at 333 ppm is balanced with pure argon and continuously bubbled for 24 hr anaerobically.
Nitric oxide (NO) gas (200 ppm, 0.4 μM) balanced with Ar is anaerobically delivered to a water-jacketed chamber in which ˜10^8 bacteria/ml are suspended. […] Gas flow is constantly maintained at 3 ml/min. Pure Ar gas is used as a control.

CC(C)(O/N=C(\C(=O)N[C@@H]1C(=O)N2C(C(=O)[O-])=C(C[n+]3ccccc3)CS[C@H]12)c1csc(N)n1)C(=O)O [ceftazidime]
resistance of 4 clinical isolates [1]: highly resistant

O=NO [HNO2, nitrous acid]
sensitivity of sodAsodB mutant [2]: not sensitive
decrease of mucoid FRD1 in lung ([3]; pH 5.5): > 3 logs
decrease of mucoid FRD1 in lung ([3]; pH 6.5, 15 mM NO2^− intranasal): > 2 logs
decrease of nonmucoid FRD1/pmucA in lung ([3]; pH 6.5 and pH 5.5): but not nonmucoid FRD1/pmucA, are decreased
competitive index ([4]; complemented strain FRD1/pmucA, 6 days): ~1.0
competitive index ([4]; {}): ~0.2
HNO2 concentration (pH 6.5/15 mM NO2^− and pH 5.5/[…] NO2^−): ~10 µM
HNO2 concentration (pH 6.5 and 15 mM NO2^−): 10.62 µM
speed of killing compared with L-broth [5]: killed faster
bacteria in lung after long-term treatment [6]: no bacteria detected

O=NO [NO2^−, nitrite]
mucA mutant mucoid isolates showing increased susceptibility ([7]; 15 mM NO2^−, pH 6.5, anaerobic): 78 out of 82
number of mucoid isolates with wild-type mucA allele resistant, out of 12 ([7]; acidified NO2^−): 8
sensitivity of 4 antibiotic-resistant strains ([7]; anaerobic treatment with acidified NO2^−): still sensitive
share of isolates killed by more than 2 logs ([7]; mucA mutant mucoid isolates, 15 mM NO2^−, pH 6.5, anaerobic): 74%
killing versus pH ([8]; FRD1, filter disc 10 μl of 1 M NO2^−, anaerobic 48 hours): more effectively at lower pH
killing versus pH ([8]; FRD1/pmucA, pH values between 6.0 and 7.5): little or no killing
in vitro sensitivity of organisms recovered from mouse airways after exposure ([3]; mouse, in vivo): still sensitive
killing of mucoid variants of patients A, B, C and D [9]: 1.9-3.1 logs
LD50 ([10]; mucoid FRD1, pH 6.5, 24 hr anaerobic): ~3 mM
bacteria killed ([10]; pH 6.5): Ninety to ninety-five
killing on long-term exposure ([10]; pH 6.5): all organisms are killed
LD50 for sensitive strains compared with FRD1 [11]: almost identical to that for FRD1
sensitivity of FRD1 derived nonmucoid mutants ΔalgD and ΔalgT(U) [11]: equally sensitive
sensitivity of PDO300 (PAO1 mucA22) [11]: sensitive
sensitivity of mucB, mucD and algW mutants of PAO1 [11]: not sensitive
viability of nonmucoid FRD1/pmucA after mixed incubation [12]: maintains viability
CFU of mucoid FRD1 after mixed incubation ([12]; three bacterial ratios): < 10^3 CFU/ml
viability of nonmucoid strains PAO1 and FRD1/pmucA ([13]; 15 mM NO2^−, 4 day incubation): remained viable
rate of killing ([13]; mucoid FRD1, 15 mM NO2^−): 90 % per day
susceptibility of Staphylococcus aureus incl. MRSA [14]: exhibited susceptibility
half-life of NO2^− on CF airway surfaces [15]: ~5 h
immune response as release of IL-8 [16]: does not cause activation of an immune response
transepithelial water flux (Jv) [17]: does not alter transepithelial water flux
sensitivity of norCB mutant relative to FRD1 [18]: ~10 fold
viability of mucoid mucA mutant sputum isolates [19]: a sharp decrease in viability
cytotoxicity by lactate dehydrogenase release [20]: no cytotoxicity
biofilm response ([21]; FRD1/pmucA biofilm, acidified NO2^−): resistance to acidified NO2^− is clearly evident
death of biofilm organisms ([21]; FRD1 biofilm, 15 mM NO2^−, pH 6.5, 2 days): nearly complete death of biofilm organisms
biofilm structure and cell viability relative to control ([21]; FRD1 biofilm, 15 mM NO2^−, pH 7.5, 2 days): no difference in biofilm structure and cell viability
amiloride-sensitive Isc ([22]; 15 mM NO2^− treated (control 15.4±1.4, p=0.92)): 15.7±1.7 μA/cm^2
UTP-activated Isc ([22]; 15 mM NO2^− treated (control 17.7±3.0, p=0.92)): 18.1±3.3 μA/cm^2
basal transepithelial short circuit current (Isc) ([22]; NO2^− at varying concentrations): not affected
killing of mucoid bacteria at identical HNO2 concentrations [23]: equal killing

NCC[C@H](O)C(=O)N[C@@H]1C[C@H](N)[C@@H](O[C@H]2O[C@H](CN)[C@@H](O)[C@H](O)[C@H]2O)[C@H](O)[C@H]1O[C@H]1O[C@H](CO)[C@@H](O)[C@H](N)[C@H]1O [amikacin]
resistance of 4 clinical isolates [1]: highly resistant

CC1(C)N([O])C(c2ccc(C(=O)O)cc2)=[N+]([O-])C1(C)C [carboxy-PTIO]
protection of FRD1 from killing by acidified NO2^− [24]: strong protective effect

O=[N+]([O-])O [NO3^−, nitrate, reference compound]
viability patterns of FRD1, PAO1 and FRD1/pmucA ([13]; 15 mM NO3^−): no difference in viability patterns is observed

[N]=O [NO, nitric oxide]
killing of FRD1 by NO/Ar gas mixture [25]: is killed

gentamycin
resistance of 4 clinical isolates [1]: highly resistant

NC[C@H]1O[C@H](O[C@H]2[C@H](O)[C@@H](O[C@H]3O[C@H](CO)[C@@H](O)[C@H](N)[C@H]3O)[C@H](N)C[C@@H]2N)[C@H](N)C[C@@H]1O [tobramycin]
resistance of 4 clinical isolates [1]: highly resistant
